Experimental data: PMC3211509 (Nanoscale Research Letters, 2011)

Experiments:
[1] = parameters: method as in printed; settings: ref not given; cited from earlier work
[2] = parameters: method as in earlier work; settings: oral, 1 compartment, first-order elimination ref 15; cited from earlier work
[3] = Drug absorbed in vivo after oral dose (Wagner-Nelson equation); settings: rat, 30 mg/kg, at Cmax
Excerpt: A model based on the Wagner-Nelson (W-N) equation was established in-house and was used to calculate the drug absorbed to further assess the amount of drug absorbed as a function of time. The utilization of the W-N equation allows us to obtain all the drug that is absorbed (including excreted) at different time points. This allowed us to estimate the relationship and the impact on the absorption on the surface area changes of the drug. [drawing 2] [drawing 3]
where A is the drug absorbed, V is the volume of distribution, Cp is the plasma concentration, K is the elimination rate constant, and t is time.
In order to understand the degree of improvement provided by an oral nanosuspension formulation, simulations were performed using a Wagner-Nelson equation-based model that was established in-house in order to assess the amount of drug absorbed (dA) as a function of time. In this model, the stomach empting time was taking into consideration. […] The unit surface area by weight (A/W) was calculated to estimate the surface area reduction after the absorption took place, and the total residual surface area (RA) was calculated for each time point. The absorption efficiency (AE) was calculated by taking the ratio of the amount of drug available and was divided by the RA (AE = W/RA), and the absorption constant (K) was calculated as AE/δT. […]

[4] = test system: human vascular smooth muscle (VSM) cell; parameters: method as in PMID 11090543, PMID 11842228; settings: cited from earlier work
[5] = test system: spontaneously hypertensive rats; parameters: method as in printed; settings: reported, ref not given; cited from earlier work

O=C(NC1CCCCC1)NC1CCCCC1 [DCU, 1,3-Dicyclohexylurea]
free fraction in plasma (unbound) [1]: 3% | K01 (absorption rate constant) [2]: 26.3 h⁻¹ | K10 (elimination rate constant) [2]: 0.277 h⁻¹ | Vf [2]: 5.8 L | Drug absorbed, In vivo (Wagner-Nelson equation) [3]: 1.1 mg | human VSM cell proliferation [4]: inhibits human vascular smooth muscle (VSM) cell proliferation in a dose-dependent manner | effect on systemic blood pressure [5]: lower systemic blood pressure
